Assay results as given in ChEMBL document CHEMBL3885881, “DrugMatrix”.

Organism: Rattus norvegicus
Test: DrugMatrix - Regimen: Daily Repeat
Format: toxicity, organism-based, Sprague-Dawley
Set-up: regimen Daily Repeat, gender Male, age 6-8 weeks
Conditions: in vivo, sc, route subcutaneous, […]; for ABSOLUTE BASOPHIL / ABSOLUTE EOSINOPHIL / ABSOLUTE LYMPHOCYTE / ABSOLUTE MONOCYTE / ABSOLUTE SEGMENTED NEUTROPHIL / BASOPHIL / EOSINOPHIL / ERYTHROCYTE COUNT / HEMATOCRIT / HEMOGLOBIN / LEUKOCYTE COUNT / LYMPHOCYTE / MEAN CORPUSCULAR HEMOGLOBIN / MEAN CORPUSCULAR HEMOGLOBIN CONCENTRATION / MEAN CORPUSCULAR VOLUME / MONOCYTE / NEUTROPHIL / NUCLEATED RED BLOOD CELLS / PLATELET COUNT: tissue Blood; for ALANINE AMINOTRANSFERASE / ALBUMIN / ALKALINE PHOSPHATASE / ASPARTATE AMINOTRANSFERASE / BLOOD UREA NITROGEN / CARBON DIOXIDE / CHLORIDE / CHOLESTEROL / CREATINE PHOSPHOKINASE / CREATININE / GLUCOSE / LACTATE DEHYDROGENASE / LIPASE / PHOSPHORUS / POTASSIUM / SODIUM / TOTAL BILIRUBIN / TOTAL PROTEIN / URIC ACID: tissue Plasma
[1] = 14 mg/kg, 120 h, dose level Low, time 5 day
[2] = 140 mg/kg, 72 h, dose level High, time 3 day
[3] = 140 mg/kg, 120 h, dose level High, time 5 day

CCN(CC)CCOCCC1=CCC2CC1C2(C)C (centres undefined) [MYRTECAINE]
ABSOLUTE BASOPHIL [1]: 0 CELLS/uL | ABSOLUTE EOSINOPHIL [1]: 435.67 CELLS/uL | ABSOLUTE LYMPHOCYTE [1]: 16182.67 CELLS/uL | ABSOLUTE MONOCYTE [1]: 0 CELLS/uL | ABSOLUTE SEGMENTED NEUTROPHIL [1]: 2215 CELLS/uL | BASOPHIL [1]: 0% | EOSINOPHIL [1]: 2.33% | ERYTHROCYTE COUNT [1]: 6.14 x10E6/uL | HEMATOCRIT [1]: 39.17% | HEMOGLOBIN [1]: 15.53 G/DL | LEUKOCYTE COUNT [1]: 18.83 x10E3/uL | LYMPHOCYTE [1]: 86% | MEAN CORPUSCULAR HEMOGLOBIN [1]: 25.33 pg | MEAN CORPUSCULAR HEMOGLOBIN CONCENTRATION [1]: 39.7 G/DL | MEAN CORPUSCULAR VOLUME [1]: 63.8 fL | MONOCYTE [1]: 0% | NEUTROPHIL [1]: 11.67% | NUCLEATED RED BLOOD CELLS [1]: 0 /100WBC | PLATELET COUNT [1]: 1530.33 x10E3/uL | ALANINE AMINOTRANSFERASE [1]: 58 u/L | ALBUMIN [1]: 4.53 G/DL | ALKALINE PHOSPHATASE [1]: 470.67 u/L | ASPARTATE AMINOTRANSFERASE [1]: 83.67 u/L | BLOOD UREA NITROGEN [1]: 17.67 mg/dL | CARBON DIOXIDE [1]: 31.67 mmol/L | CHLORIDE [1]: 104 MEQ/L | CHOLESTEROL [1]: 76.67 mg/dL | CREATINE PHOSPHOKINASE [1]: 162.33 u/L | CREATININE [1]: 0.26 mg/dL | GLUCOSE [1]: 157.67 mg/dL | LACTATE DEHYDROGENASE [1]: 142 u/L | LIPASE [1]: 9.67 u/L | PHOSPHORUS [1]: 14.37 mg/dL | POTASSIUM [1]: 7.28 MEQ/L | SODIUM [1]: 151.27 MEQ/L | TOTAL BILIRUBIN [1]: 0.3 mg/dL | TOTAL PROTEIN [1]: 6.67 G/DL | URIC ACID [1]: 2.23 mg/dL | ABSOLUTE BASOPHIL [2]: 0 CELLS/uL | ABSOLUTE EOSINOPHIL [2]: 42 CELLS/uL | ABSOLUTE LYMPHOCYTE [2]: 11279.33 CELLS/uL | ABSOLUTE MONOCYTE [2]: 191.33 CELLS/uL | ABSOLUTE SEGMENTED NEUTROPHIL [2]: 620.67 CELLS/uL | BASOPHIL [2]: 0% | EOSINOPHIL [2]: 0.33% | ERYTHROCYTE COUNT [2]: 5.34 x10E6/uL | HEMATOCRIT [2]: 33.37% | HEMOGLOBIN [2]: 13.6 G/DL | LEUKOCYTE COUNT [2]: 12.13 x10E3/uL | LYMPHOCYTE [2]: 93% | MEAN CORPUSCULAR HEMOGLOBIN [2]: 25.53 pg | MEAN CORPUSCULAR HEMOGLOBIN CONCENTRATION [2]: 40.77 G/DL | MEAN CORPUSCULAR VOLUME [2]: 62.57 fL | MONOCYTE [2]: 1.67% | NEUTROPHIL [2]: 5% | NUCLEATED RED BLOOD CELLS [2]: 0 /100WBC | PLATELET COUNT [2]: 1370.67 x10E3/uL | ALANINE AMINOTRANSFERASE [2]: 61.67 u/L | ALBUMIN [2]: 3.67 G/DL | ALKALINE PHOSPHATASE [2]: 346 u/L | ASPARTATE AMINOTRANSFERASE [2]: 92 u/L | BLOOD UREA NITROGEN [2]: 13.33 mg/dL | CARBON DIOXIDE [2]: 30.33 mmol/L | CHLORIDE [2]: 100.33 MEQ/L | CHOLESTEROL [2]: 67 mg/dL | CREATINE PHOSPHOKINASE [2]: 447 u/L | CREATININE [2]: 0.17 mg/dL | GLUCOSE [2]: 155.33 mg/dL | LACTATE DEHYDROGENASE [2]: 247.33 u/L | LIPASE [2]: 8 u/L | PHOSPHORUS [2]: 13.73 mg/dL | POTASSIUM [2]: 7.09 MEQ/L | SODIUM [2]: 144.03 MEQ/L | TOTAL BILIRUBIN [2]: 0.2 mg/dL | TOTAL PROTEIN [2]: 5.6 G/DL | URIC ACID [2]: 2.03 mg/dL | ABSOLUTE BASOPHIL [3]: 0 CELLS/uL | ABSOLUTE EOSINOPHIL [3]: 174.67 CELLS/uL | ABSOLUTE LYMPHOCYTE [3]: 14614 CELLS/uL | ABSOLUTE MONOCYTE [3]: 386 CELLS/uL | ABSOLUTE SEGMENTED NEUTROPHIL [3]: 2992 CELLS/uL | BASOPHIL [3]: 0% | EOSINOPHIL [3]: 1% | ERYTHROCYTE COUNT [3]: 6.17 x10E6/uL | HEMATOCRIT [3]: 37.83% | HEMOGLOBIN [3]: 14.87 G/DL | LEUKOCYTE COUNT [3]: 18.17 x10E3/uL | LYMPHOCYTE [3]: 81.33% | MEAN CORPUSCULAR HEMOGLOBIN [3]: 24.07 pg | MEAN CORPUSCULAR HEMOGLOBIN CONCENTRATION [3]: 39.33 G/DL | MEAN CORPUSCULAR VOLUME [3]: 61.3 fL | MONOCYTE [3]: 2.33% | NEUTROPHIL [3]: 15.33% | NUCLEATED RED BLOOD CELLS [3]: 0 /100WBC | PLATELET COUNT [3]: 1631 x10E3/uL | ALANINE AMINOTRANSFERASE [3]: 84.67 u/L | ALBUMIN [3]: 3.97 G/DL | ALKALINE PHOSPHATASE [3]: 328 u/L | ASPARTATE AMINOTRANSFERASE [3]: 111.67 u/L | BLOOD UREA NITROGEN [3]: 16 mg/dL | CARBON DIOXIDE [3]: 26.33 mmol/L | CHLORIDE [3]: 104 MEQ/L | CHOLESTEROL [3]: 74.67 mg/dL | CREATINE PHOSPHOKINASE [3]: 356 u/L | CREATININE [3]: 0.2 mg/dL | GLUCOSE [3]: 164.67 mg/dL | LACTATE DEHYDROGENASE [3]: 370 u/L | LIPASE [3]: 12 u/L | PHOSPHORUS [3]: 13.97 mg/dL | POTASSIUM [3]: 6.94 MEQ/L | SODIUM [3]: 146.77 MEQ/L | TOTAL BILIRUBIN [3]: 0.17 mg/dL | TOTAL PROTEIN [3]: 5.97 G/DL | URIC ACID [3]: 2.6 mg/dL
